The results in this text go back to ChEMBL document CHEMBL3046425, “Synthesis of Antifungal 2-Anilino-4-phenylthiazoles and Their Inhibitory Activities on Sterol Biosynthesis” (J Pestic Sci, 2001).

≈ marks a conversion by molar mass, not a printed value.

Broadly, the EC50 is the concentration at which the effect is half-maximal. By MIC is commonly meant the lowest concentration found to suppress growth.

For assay [1], the system named is Botrytis cinerea. Kind of assay: Antifungal activity against Botryotinia fuckeliana assessed as accumulation of squalene using [2-14C]acetate at 1 x 10^-6 M. The class given is functional.
Assay [2] concerns the target T1, Squalene epoxidase ERG1 (Saccharomyces cerevisiae S288c) (UniProt P32476).
T1 sequence (whole entry): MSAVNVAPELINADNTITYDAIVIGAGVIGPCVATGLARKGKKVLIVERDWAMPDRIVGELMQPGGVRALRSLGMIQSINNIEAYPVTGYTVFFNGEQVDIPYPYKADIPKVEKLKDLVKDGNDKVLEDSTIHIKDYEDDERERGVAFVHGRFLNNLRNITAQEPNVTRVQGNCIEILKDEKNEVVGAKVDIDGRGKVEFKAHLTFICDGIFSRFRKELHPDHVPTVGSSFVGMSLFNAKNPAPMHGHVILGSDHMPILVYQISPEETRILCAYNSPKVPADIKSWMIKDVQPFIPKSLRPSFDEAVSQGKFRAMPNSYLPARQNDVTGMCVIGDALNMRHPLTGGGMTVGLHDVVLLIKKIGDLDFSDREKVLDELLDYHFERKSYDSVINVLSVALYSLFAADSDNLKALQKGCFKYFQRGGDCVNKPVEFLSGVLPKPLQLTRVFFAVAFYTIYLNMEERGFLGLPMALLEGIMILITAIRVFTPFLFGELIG
Kind of assay: Inhibition of squalene epoxidase in Saccharomyces cerevisiae IFO 1346 assessed as incorporation of [2-14C]mevalonate into 2,3-oxidosqualene at 1 x 10^-5 M after 3 hr. Further details: scale not given: the % may be the effect or the level left.

For assay [3], the target named is T1, Squalene epoxidase ERG1 (Saccharomyces cerevisiae S288c). Description: Inhibition of squalene epoxidase in Saccharomyces cerevisiae IFO 1346 assessed as incorporation of [2-14C]mevalonate into 4,4-dimethyl sterols at 1 x 10^-5 M after 3 hr. Also noted: scale not given: the % may be the effect or the level left.
For assay [4] the target is unchanged. Kind of assay: Inhibition of squalene epoxidase in Saccharomyces cerevisiae IFO 1346 assessed as incorporation of [2-14C]mevalonate into 4alpha-methyl sterols at 1 x 10^-4 M after 3 hr. Further details: scale not given: the % may be the effect or the level left.
Assay [5] shares this target. Kind of assay: Inhibition of squalene epoxidase in Saccharomyces cerevisiae IFO 1346 assessed as incorporation of [2-14C]mevalonate into 4,4-dimethyl sterols at 1 x 10^-4 M after 3 hr. Also noted: scale not given: the % may be the effect or the level left.
For assay [6] the target is unchanged. Kind of assay: Inhibition of squalene epoxidase in Saccharomyces cerevisiae IFO 1346 assessed as incorporation of [2-14C]mevalonate into 4-desmethyl sterols at 1 x 10^-4 M after 3 hr. Further details: scale not given: the % may be the effect or the level left.
Assay [7] shares this target. Kind of assay: Inhibition of squalene epoxidase in Saccharomyces cerevisiae IFO 1346 assessed as incorporation of [2-14C]mevalonate into 4alpha-methyl sterols at 1 x 10^-5 M after 3 hr. Also noted: scale not given: the % may be the effect or the level left.
Assay [8] has as its system Botrytis cinerea. Description: Antifungal activity against Botryotinia fuckeliana. The class given is functional, organism-based.
The test system of assay [9] is Botrytis cinerea. Description: Antifungal activity against Botryotinia fuckeliana assessed as accumulation of squalene using [2-14C]acetate at 1 x 10^-5 M. It is filed as functional.
Assay [10] has as its target T1, Squalene epoxidase ERG1 (Saccharomyces cerevisiae S288c). Description: Inhibition of squalene epoxidase in Saccharomyces cerevisiae IFO 1346 assessed as incorporation of [2-14C]mevalonate into squalene at 1 x 10^-4 M after 3 hr. Further details: scale not given: the % may be the effect or the level left.
Assay [11] relates to Botrytis cinerea. Description: Antifungal activity against Botryotinia fuckeliana assessed as accumulation of squalene using [2-14C]acetate at 1 x 10^-7 M. The class given is functional.
The test system of assay [12] is Trichophyton mentagrophytes. Description: Antifungal activity against Trichophyton mentagrophytes assessed as accumulation of squalene using [2-14C]acetate at 1 x 10^-8 M. It is filed as functional.
Assay [13] relates to Trichophyton mentagrophytes. Kind of assay: Antifungal activity against Trichophyton mentagrophytes. The class given is functional.
Assay [14] has as its target T1, Squalene epoxidase ERG1 (Saccharomyces cerevisiae S288c). Description: Inhibition of squalene epoxidase in Saccharomyces cerevisiae IFO 1346 assessed as incorporation of [2-14C]mevalonate into 4-desmethyl sterols at 1 x 10^-5 M after 3 hr. Further details: scale not given: the % may be the effect or the level left.
A further assay has as its system Pyricularia oryzae. Description: Antifungal activity against Magnaporthe oryzae. The class given is functional, organism-based.
Assay [15] deals with T1, Squalene epoxidase ERG1 (Saccharomyces cerevisiae S288c). Description: Inhibition of squalene epoxidase in Saccharomyces cerevisiae IFO 1346 assessed as incorporation of [2-14C]mevalonate into squalene at 1 x 10^-5 M after 3 hr. Further details: scale not given: the % may be the effect or the level left.
Assay [16] has as its system Trichophyton mentagrophytes. Description: Antifungal activity against Trichophyton mentagrophytes assessed as accumulation of squalene using [2-14C]acetate at 1 x 10^-9 M. The class given is functional.
The test system of assay [17] is Trichophyton mentagrophytes. Description: Antifungal activity against Trichophyton mentagrophytes assessed as accumulation of squalene using [2-14C]acetate at 1 x 10^-7 M. It is filed as functional.
For assay [18], the target named is T1, Squalene epoxidase ERG1 (Saccharomyces cerevisiae S288c). Description: Inhibition of squalene epoxidase in Saccharomyces cerevisiae IFO 1346 assessed as incorporation of [2-14C]mevalonate into 2,3-oxidosqualene at 1 x 10^-4 M after 3 hr. Further details: scale not given: the % may be the effect or the level left.

`Clc1ccc(Nc2nc(-c3c(Cl)cccc3Cl)cs2)cc1`: the Activity in the assay with Botrytis cinerea [1] was 72.5%; in assay [2], 3.6%; in assay [3], 1.5%; in assay [4], 0.7%; in assay [5] it was 0.9%; in assay [6], 15.3%. For the same compound, the Activity amounted to 1.7% in assay [7]; 86.7% with Botrytis cinerea [9]; 80.3% in assay [10]; 7.5% in the assay with Botrytis cinerea [11]; 67.4% in assay [12]; 47.2% in assay [14]. In addition, the Activity in [15] was determined as 44.9%; in [16], 28.5%; in assay [17], 85.8%; in assay [18] it was 1.9%. The EC50 in the assay with Botrytis cinerea [8] amounted to 0.05 µg/mL (≈ 0.141 µM); in the assay on Pyricularia oryzae, 0.4 µg/mL (≈ 1.12 µM). Besides, in [13], the MIC was 0.03 µg/mL (≈ 0.0843 µM).
